Experimental data from patent publication US8415469B2, “Compounds and methods for kinase modulation, and indications therefor” (Plexxikon Inc., priority 2005, dated 2013).

Tests used:
Assay type in all cases: biochemical
[1] = target: T1, Fms (Homo sapiens, UniProt P07333); experiment: AlphaScreen kinase assay, Fms; details: read-out: IC50, activity toward kinase Fms
T1 construct: purchased Upstate Biotechnology

[2] = target: T2, FGFR1 (Homo sapiens, UniProt P11362, C488A/C584S); experiment: AlphaScreen kinase assay, FGFR1; details: read-out: IC50, activity toward kinase FGFR
T2 construct: P1351.pET N6 BI-PTP FGFR A458-E765-X C488A, C584S; made in house; host or cells: E. coli (PTP1B co-expressed)

[3] = target: T3, Kit (Homo sapiens, UniProt P10721); experiment: AlphaScreen kinase assay, Kit; details: read-out: IC50, activity toward kinase Kit
T3 construct: P1332.N6 BI PTP KIT M552-K948-X COD; His6 (N); made in house; host or cells: E. coli (PTP1B co-expressed)

[4] = target: T4, B-Raf V600E (Homo sapiens, UniProt P15056, V600E); experiment: AlphaScreen kinase assay, B-Raf V600E; details: read-out: IC50, activity toward kinase B-Raf V600E
T4 construct: P4254. pFastBacBD-CDC37 BRAF D437-K722-X, V600E; His6 with pFastBac HT leader (TEV site) (N); made in house; host or cells: Sf9 (baculovirus; chaperone CDC37 co-expressed)
T4 sequence (P15056 with tags, fused parts or gaps V600E): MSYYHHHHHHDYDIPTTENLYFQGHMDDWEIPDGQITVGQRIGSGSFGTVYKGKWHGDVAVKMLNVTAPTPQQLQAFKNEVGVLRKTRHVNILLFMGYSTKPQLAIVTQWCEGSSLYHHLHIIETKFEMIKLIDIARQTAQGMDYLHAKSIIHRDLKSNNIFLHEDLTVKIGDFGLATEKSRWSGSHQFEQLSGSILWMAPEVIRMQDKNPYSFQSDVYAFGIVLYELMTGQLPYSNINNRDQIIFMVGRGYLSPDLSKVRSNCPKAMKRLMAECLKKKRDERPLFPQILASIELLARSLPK

T3 sequence (P10721 with tags, fused parts or gaps): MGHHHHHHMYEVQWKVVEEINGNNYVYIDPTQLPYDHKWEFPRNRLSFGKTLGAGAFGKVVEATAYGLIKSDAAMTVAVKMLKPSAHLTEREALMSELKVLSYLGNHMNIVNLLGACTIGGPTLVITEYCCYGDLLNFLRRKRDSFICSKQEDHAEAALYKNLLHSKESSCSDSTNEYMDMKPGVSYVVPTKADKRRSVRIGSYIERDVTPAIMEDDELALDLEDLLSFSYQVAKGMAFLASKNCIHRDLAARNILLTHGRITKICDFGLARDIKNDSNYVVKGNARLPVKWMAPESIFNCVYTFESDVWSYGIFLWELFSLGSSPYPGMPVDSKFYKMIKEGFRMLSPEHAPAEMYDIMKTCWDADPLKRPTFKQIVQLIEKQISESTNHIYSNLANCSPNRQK
T2 sequence (P11362 458-765 C488A/C584S): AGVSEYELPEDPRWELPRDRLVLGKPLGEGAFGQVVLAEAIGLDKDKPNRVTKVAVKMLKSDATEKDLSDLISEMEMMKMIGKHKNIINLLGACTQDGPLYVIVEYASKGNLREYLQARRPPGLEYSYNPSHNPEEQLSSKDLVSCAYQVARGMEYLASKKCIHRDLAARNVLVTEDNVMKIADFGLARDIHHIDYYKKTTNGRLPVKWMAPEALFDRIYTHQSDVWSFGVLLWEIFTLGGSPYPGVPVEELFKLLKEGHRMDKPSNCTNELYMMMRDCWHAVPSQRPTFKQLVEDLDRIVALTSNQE
T1 sequence (P07333 20-972): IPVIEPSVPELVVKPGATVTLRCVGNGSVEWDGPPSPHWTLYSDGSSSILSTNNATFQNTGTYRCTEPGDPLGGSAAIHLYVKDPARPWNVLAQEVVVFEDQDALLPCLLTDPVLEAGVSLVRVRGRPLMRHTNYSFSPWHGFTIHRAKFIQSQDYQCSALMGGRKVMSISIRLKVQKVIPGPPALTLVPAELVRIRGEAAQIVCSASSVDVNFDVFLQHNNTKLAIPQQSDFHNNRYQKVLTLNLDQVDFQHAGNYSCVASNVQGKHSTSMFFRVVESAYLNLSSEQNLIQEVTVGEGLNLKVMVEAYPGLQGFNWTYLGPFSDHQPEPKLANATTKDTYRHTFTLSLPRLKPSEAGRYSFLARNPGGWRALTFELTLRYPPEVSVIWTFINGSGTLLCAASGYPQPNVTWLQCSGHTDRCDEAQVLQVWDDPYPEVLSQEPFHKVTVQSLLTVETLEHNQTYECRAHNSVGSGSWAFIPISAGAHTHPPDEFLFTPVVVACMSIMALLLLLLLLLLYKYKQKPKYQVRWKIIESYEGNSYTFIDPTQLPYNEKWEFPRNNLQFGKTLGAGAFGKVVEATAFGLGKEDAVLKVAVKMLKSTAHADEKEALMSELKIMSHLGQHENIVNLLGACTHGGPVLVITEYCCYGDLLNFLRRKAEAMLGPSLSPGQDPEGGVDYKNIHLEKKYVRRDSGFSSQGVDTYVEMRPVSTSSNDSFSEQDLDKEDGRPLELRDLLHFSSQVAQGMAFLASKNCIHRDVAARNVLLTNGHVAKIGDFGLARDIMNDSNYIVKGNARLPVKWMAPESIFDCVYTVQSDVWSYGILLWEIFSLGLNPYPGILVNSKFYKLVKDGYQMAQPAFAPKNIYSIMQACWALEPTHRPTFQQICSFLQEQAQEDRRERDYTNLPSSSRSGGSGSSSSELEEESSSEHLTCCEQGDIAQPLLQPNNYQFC

IC50 [1] | IC50 [2] | IC50 [3] | Structure (SMILES) | also measured
– | – | ≤ 10 µM | O=C(c1ccc(Cl)nc1)c1c[nH]c2ncc(Br)cc12 [Compound P-0499] | –
– | – | ≤ 10 µM | O=C(c1ccc2nsnc2c1)c1c[nH]c2ncc(-c3cccnc3)cc12 [Compound P-0905] | IC50 [4]: ≤ 10 µM
– | ≤ 10 µM | – | COc1cccc(C(=O)c2c[nH]c3ncc(Nc4ccccc4)cc23)c1 [Compound P-1120] | IC50 [4]: ≤ 10 µM
– | – | ≤ 10 µM | CCCS(=O)(=O)Nc1ccc(F)c(C(OC)c2c[nH]c3ncc(Br)cc23)c1F (stereo not drawn) [Compound P-1275] | –
– | – | ≤ 10 µM | COc1ccc(C(=O)c2c[nH]c3ncc(Br)cc23)c(F)c1 [Compound P-1320] | –
– | ≤ 10 µM | ≤ 10 µM | O=C(c1ccccc1OCc1ccccc1)c1c[nH]c2ncc(Br)cc12 [Compound P-1382] | –
≤ 10 µM | – | – | O=C(c1cccc(C(F)(F)F)c1)c1c[nH]c2ncc(-c3ccccc3)cc12 [Compound P-1405, (5-Phenyl-1H-pyrrolo[2,3-b]pyridin-3-yl)-(3-trifluoromethyl-phenyl)-methanone] | –
– | ≤ 10 µM | ≤ 10 µM | O=C(c1cc(F)cc(C(F)(F)F)c1)c1c[nH]c2ncc(-c3ccccc3)cc12 [Compound P-1407, (3-Fluoro-5-trifluoromethyl-phenyl)-(5-phenyl-1H-pyrrolo[2,3-b]pyridin-3-yl)-methanone] | –
– | – | ≤ 10 µM | O=C(c1cccc(OC(F)(F)F)c1)c1c[nH]c2ncc(-c3ccccc3)cc12 [Compound P-1408, (5-Phenyl-1H-pyrrolo[2,3-b]pyridin-3-yl)-(3-trifluoromethoxy-phenyl)-methanone] | –
≤ 10 µM | – | – | CN(c1ccc(Cl)c(Cl)c1)c1c[nH]c2ncccc12 [Compound P-1494, (3,4-Dichloro-phenyl)-methyl-(1H-pyrrolo[2,3-b]pyridin-3-yl)-amine] | –
≤ 10 µM | – | – | OC(c1cccc(OC(F)F)c1)c1c[nH]c2ncc(Br)cc12 (stereo not drawn) [Compound P-1511] | –
– | – | ≤ 10 µM | O=C(c1cccc(OC(F)F)c1)c1c[nH]c2ncc(Br)cc12 [Compound P-1514, (5-Bromo-1H-pyrrolo[2,3-b]pyridin-3-yl)-(3-difluoromethoxy-phenyl)-methanone] | –
– | ≤ 10 µM | – | CS(=O)(=O)Nc1cccc(-c2cnc3[nH]cc(C(=O)c4cccc5c4OC(F)(F)O5)c3c2)c1 [Compound P-1516, N-{3-[3-(2,2-Difluoro-benzo[1,3]dioxole-4-carbonyl)-1H-pyrrolo[2,3-b]pyridin-5-yl]-phenyl}-methanesulfonamide] | IC50 [4]: ≤ 10 µM
– | ≤ 10 µM | ≤ 10 µM | FC(F)Oc1cc(Cc2c[nH]c3ncc(Br)cc23)cc(OC(F)F)c1 [Compound P-1538, 3-(3,5-Bis-difluoromethoxy-benzyl)-5-bromo-1H-pyrrolo[2,3-b]pyridine] | –
– | ≤ 10 µM | ≤ 10 µM | OC(c1ccc2c(c1)OC(F)(F)O2)c1c[nH]c2ncc(Br)cc12 (stereo not drawn) [Compound P-1550] | IC50 [4]: ≤ 10 µM
– | – | ≤ 10 µM | O=C(c1ccc2c(c1)OC(F)(F)O2)c1c[nH]c2ncc(Br)cc12 [Compound P-1551, (5-Bromo-1H-pyrrolo[2,3-b]pyridin-3-yl)-(2,2-difluoro-benzo[1,3]dioxol-5-yl)-methanone] | –
≤ 10 µM | – | – | O=C(c1ccc2c(c1)OC(F)(F)O2)c1c[nH]c2ncc(-c3cccnc3)cc12 [Compound P-1558, (2,2-Difluoro-benzo[1,3]dioxol-5-yl)-(5-pyridin-3-yl-1H-pyrrolo[2,3-b]pyridin-3-yl)-methanone] | IC50 [4]: ≤ 10 µM
– | – | ≤ 10 µM | O=[N+]([O-])c1ccc(Sc2c[nH]c3ncc(Cl)cc23)nc1 [Compound P-1562] | –
– | – | ≤ 10 µM | O=C(c1ccc(Cl)cc1Cl)c1c[nH]c2ncc(Br)cc12 [Compound P-1565] | –
– | – | ≤ 10 µM | COc1ccc(Sc2c[nH]c3ncc(Cl)cc23)nc1 [Compound P-1574] | –
≤ 10 µM | – | – | O=C(NCC1CC1)Nc1ccc(F)c(Cc2c[nH]c3ncc(Cl)cc23)c1F [Compound P-1652, 1-[3-(5-Chloro-1H-pyrrolo[2,3-b]pyridin-3-ylmethyl)-2,4-difluoro-phenyl]-3-cyclopropylmethyl-urea] | –

The remaining lines, values behind:

Structure (SMILES) | IC50 [1] | IC50 [2] | IC50 [3] | also measured
COc1cccc(Cc2c[nH]c3ncccc23)c1 [Compound P-0239] | ≤ 10 µM | – | – | –
OC(c1ccc(NCc2ccc(C(F)(F)F)cc2)nc1)c1c[nH]c2ncccc12 (stereo not drawn) [Compound P-0291] | ≤ 10 µM | – | – | –
Cc1ccc(Cc2c[nH]c3ncccc23)cc1 [Compound P-0346] | – | ≤ 10 µM | ≤ 10 µM | –
c1ccc(Nc2cnc3[nH]ccc3c2)cc1 [Compound P-0384] | – | – | ≤ 10 µM | –
OCCOc1cccc(Cc2c[nH]c3ncccc23)c1 [Compound P-0411] | – | ≤ 10 µM | ≤ 10 µM | –
Clc1ccc(Cc2c[nH]c3nccc(Br)c23)cn1 [Compound P-0447] | – | ≤ 10 µM | ≤ 10 µM | IC50 [4]: ≤ 10 µM
COc1cccc(CCc2c[nH]c3ncccc23)c1 [Compound P-0450] | – | – | ≤ 10 µM | –
CCOc1cccc(Cc2c[nH]c3ncccc23)c1 [Compound P-0459] | – | ≤ 10 µM | ≤ 10 µM | –
COc1cccc(CCc2c[nH]c3ncc(-c4ccsc4)cc23)c1 [Compound P-0519] | – | – | ≤ 10 µM | –
OCc1cccc(-c2c(CNCC(O)c3ccc(O)cc3)[nH]c3ncccc23)c1 (stereo not drawn) [Compound P-0554] | – | – | ≤ 10 µM | –
c1ccc(Sc2c[nH]c3ncccc23)cc1 [Compound P-0626] | – | – | ≤ 10 µM | –
COc1cccc(Cc2c[nH]c3ncc(-c4ccc(Cl)s4)cc23)c1 [Compound P-0658] | – | ≤ 10 µM | ≤ 10 µM | –
Clc1ccc(-c2cnc3[nH]ccc3c2)cc1 [Compound P-0815] | – | – | ≤ 10 µM | –
CN(C)c1ccc(Cc2c[nH]c3ncccc23)cn1 [Compound P-0935] | – | ≤ 10 µM | ≤ 10 µM | –
COc1cccc(Cc2c[nH]c3ncc(-c4ccccc4)cc23)c1 [Compound P-1084] | – | – | ≤ 10 µM | –
O=[N+]([O-])c1c[nH]c2nccc(Cl)c12 [Compound P-1096] | – | – | ≤ 10 µM | –

Structure (SMILES) | IC50 [1] | IC50 [2] | IC50 [3] | also measured
FC(F)(F)Oc1cccc(Cc2c[nH]c3nccc(Br)c23)c1 [Compound P-1123] | – | ≤ 10 µM | – | IC50 [4]: ≤ 10 µM
COc1nc(NCc2ccc(C(F)(F)F)cc2)ccc1Cc1c[nH]c2ncccc12 [Compound P-1124] | ≤ 10 µM | – | – | –
COc1cccc(Cc2c[nH]c3ncc(-c4ccc(C(F)(F)F)cc4)cc23)c1F [Compound P-1324, 3-(2-Fluoro-3-methoxy-benzyl)-5-(4-trifluoromethyl-phenyl)-1H-pyrrolo[2,3-b]pyridine] | ≤ 10 µM | – | – | –
COc1cccc(Cc2c[nH]c3ncc(-c4cccc(C(F)(F)F)c4)cc23)c1F [Compound P-1325, 3-(2-Fluoro-3-methoxy-benzyl)-5-(3-trifluoromethyl-phenyl)-1H-pyrrolo[2,3-b]pyridine] | ≤ 10 µM | ≤ 10 µM | – | –
COc1cccc(Cc2c[nH]c3ncc(-c4cccc(Cl)c4)cc23)c1F [Compound P-1326, 5-(3-Chloro-phenyl)-3-(2-fluoro-3-methoxy-benzyl)-1H-pyrrolo[2,3-b]pyridine] | ≤ 10 µM | ≤ 10 µM | – | –
COc1cccc(Cc2c[nH]c3ncc(-c4cccc(F)c4)cc23)c1F [Compound P-1327, 3-(2-Fluoro-3-methoxy-benzyl)-5-(3-fluoro-phenyl)-1H-pyrrolo[2,3-b]pyridine] | ≤ 10 µM | ≤ 10 µM | – | –
CC(=O)Nc1cccc(-c2cnc3[nH]cc(C(=O)c4cc(F)cc(C(F)(F)F)c4)c3c2)c1 [Compound P-1421, N-{3-[3-(3-Fluoro-5-trifluoromethyl-benzoyl)-1H-pyrrolo[2,3-b]pyridin-5-yl]-phenyl}-acetamide] | ≤ 10 µM | – | – | –
Cn1cnnc1-c1cccc(Nc2c[nH]c3ncccc23)c1 [Compound P-1504, [3-(4-Methyl-4H-[1,2,4]triazol-3-yl)-phenyl]-(1H-pyrrolo[2,3-b]pyridin-3-yl)-amine] | ≤ 10 µM | – | – | –
O=C(c1cc(OC(F)F)cc(OC(F)F)c1)c1c[nH]c2ncc(-c3ccccc3)cc12 [Compound P-1521, (3,5-Bis-difluoromethoxy-phenyl)-(5-phenyl-1H-pyrrolo[2,3-b]pyridin-3-yl)-methanone] | – | – | ≤ 10 µM | –
COC(=O)c1cnc2[nH]ccc2c1 [Compound P-1543] | – | – | ≤ 10 µM | –
COC(c1c(F)ccc(NC(=O)Nc2ccc(F)cc2)c1F)c1c[nH]c2ncc(Cl)cc12 (stereo not drawn) [Compound P-1653] | ≤ 10 µM | – | – | –
O=C(NCc1ccc(F)cc1)Nc1ccc(F)c(Cc2c[nH]c3ncc(Cl)cc23)c1F [Compound P-1654, 1-[3-(5-Chloro-1H-pyrrolo[2,3-b]pyridin-3-ylmethyl)-2,4-difluoro-phenyl]-3-(4-fluoro-benzyl)-urea] | ≤ 10 µM | – | – | –
O=C(Nc1ccc(F)cc1)Nc1ccc(F)c(Cc2c[nH]c3ncc(Cl)cc23)c1F [Compound P-1657, 1-[3-(5-Chloro-1H-pyrrolo[2,3-b]pyridin-3-ylmethyl)-2,4-difluoro-phenyl]-3-(4-fluoro-phenyl)-urea] | ≤ 10 µM | – | – | –
CCCCOc1ccc(NC(=O)Nc2cccc(C(=O)c3c[nH]c4ncc(-c5ccc(F)cc5)cc34)c2)cc1 [Compound P-1754, 1-(4-Butoxy-phenyl)-3-{3-[5-(4-fluoro-phenyl)-1H-pyrrolo[2,3-b]pyridine-3-carbonyl]-phenyl}-urea] | ≤ 10 µM | – | – | –
COCCNC(=O)Nc1cccc(C(=O)c2c[nH]c3ncccc23)c1 [Compound P-1761, 1-(2-Methoxy-ethyl)-3-[3-(1H-pyrrolo[2,3-b]pyridine-3-carbonyl)-phenyl]urea] | ≤ 10 µM | – | – | –
